A word on the IC50: it is the concentration needed to halve the response being measured. Read a low IC50 as higher potency.

T1 sequence (P02708 21-457): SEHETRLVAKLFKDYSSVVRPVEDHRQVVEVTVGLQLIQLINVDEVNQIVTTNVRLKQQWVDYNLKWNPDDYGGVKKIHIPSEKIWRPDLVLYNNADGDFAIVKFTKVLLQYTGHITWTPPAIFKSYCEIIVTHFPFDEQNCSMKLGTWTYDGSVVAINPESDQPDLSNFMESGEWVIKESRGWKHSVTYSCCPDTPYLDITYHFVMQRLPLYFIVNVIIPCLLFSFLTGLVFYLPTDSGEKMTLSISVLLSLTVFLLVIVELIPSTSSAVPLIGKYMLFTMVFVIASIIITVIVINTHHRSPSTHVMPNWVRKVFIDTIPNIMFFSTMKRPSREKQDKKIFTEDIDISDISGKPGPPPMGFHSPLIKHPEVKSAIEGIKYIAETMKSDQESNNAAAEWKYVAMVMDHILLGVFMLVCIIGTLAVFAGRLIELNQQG
T1 sequence (Q04844 21-493): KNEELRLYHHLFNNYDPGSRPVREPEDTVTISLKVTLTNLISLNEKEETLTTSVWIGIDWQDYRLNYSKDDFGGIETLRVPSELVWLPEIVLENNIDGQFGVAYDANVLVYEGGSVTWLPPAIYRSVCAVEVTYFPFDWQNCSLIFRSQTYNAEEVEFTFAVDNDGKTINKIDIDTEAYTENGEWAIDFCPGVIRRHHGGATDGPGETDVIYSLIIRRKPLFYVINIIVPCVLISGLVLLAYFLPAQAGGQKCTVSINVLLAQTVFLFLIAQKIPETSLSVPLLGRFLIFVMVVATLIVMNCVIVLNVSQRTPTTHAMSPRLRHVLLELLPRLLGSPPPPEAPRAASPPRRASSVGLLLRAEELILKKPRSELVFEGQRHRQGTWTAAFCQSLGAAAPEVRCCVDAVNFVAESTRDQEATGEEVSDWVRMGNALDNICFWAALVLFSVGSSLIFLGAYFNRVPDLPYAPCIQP
T1 sequence (Q07001 22-517): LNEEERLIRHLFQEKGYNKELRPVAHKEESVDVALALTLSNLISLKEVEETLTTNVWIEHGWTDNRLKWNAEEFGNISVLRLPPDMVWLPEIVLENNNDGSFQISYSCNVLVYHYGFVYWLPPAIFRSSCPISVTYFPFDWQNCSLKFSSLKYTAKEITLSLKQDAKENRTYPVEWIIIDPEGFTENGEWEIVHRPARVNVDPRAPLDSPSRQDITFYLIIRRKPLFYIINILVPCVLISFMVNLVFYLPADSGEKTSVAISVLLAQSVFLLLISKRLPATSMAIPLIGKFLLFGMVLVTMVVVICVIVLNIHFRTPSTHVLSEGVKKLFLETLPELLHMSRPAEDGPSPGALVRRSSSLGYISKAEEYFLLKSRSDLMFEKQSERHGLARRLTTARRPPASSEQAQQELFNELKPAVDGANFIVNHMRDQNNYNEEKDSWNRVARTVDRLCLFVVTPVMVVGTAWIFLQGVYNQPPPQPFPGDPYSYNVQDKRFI
T1 sequence (P11230 24-501 partner): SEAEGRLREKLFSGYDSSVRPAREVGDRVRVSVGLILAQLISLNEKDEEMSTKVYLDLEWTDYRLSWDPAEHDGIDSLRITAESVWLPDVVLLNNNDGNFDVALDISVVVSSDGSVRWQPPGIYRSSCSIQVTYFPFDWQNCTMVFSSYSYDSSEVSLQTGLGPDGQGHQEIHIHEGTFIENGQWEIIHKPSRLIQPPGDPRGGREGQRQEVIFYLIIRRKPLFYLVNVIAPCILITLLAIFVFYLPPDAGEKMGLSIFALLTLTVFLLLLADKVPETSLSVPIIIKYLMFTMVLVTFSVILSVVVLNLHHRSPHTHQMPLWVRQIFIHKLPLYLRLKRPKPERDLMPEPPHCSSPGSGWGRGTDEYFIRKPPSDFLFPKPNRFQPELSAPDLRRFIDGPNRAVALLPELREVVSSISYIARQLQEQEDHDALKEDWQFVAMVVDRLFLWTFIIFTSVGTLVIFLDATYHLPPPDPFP

The first experiment addresses T1, adult human muscle nicotinic acetylcholine receptor (nAChR, α2βεδ) (Homo sapiens, UniProt P02708+Q04844+Q07001).
Test: not given
The note with it: 300 μM ACh, -50 mV, pH 7.3, room temperature; competitive.
Take `COc1ccc(CC2c3cc(OC)c(OC)cc3CC[N+]2(C)CCC(=O)OCCCCCOC(=O)CC[N+]2(C)CCc3cc(OC)c(OC)cc3C2Cc2ccc(OC)c(OC)c2)cc1OC` (stereo not shown) [atracurium]: the half-inhibitory concentration (IC50) was determined as 17 ± 2 nM.

In turn, `COc1ccc2cc1Oc1cc3c(cc1OC)CC[N+](C)(C)[C@H]3Cc1ccc(cc1)Oc1c(OC)c(OC)cc3c1[C@@H](C2)[N+](C)(C)CC3` [metocurine] yielded a 50% inhibitory concentration (IC50) of 18 ± 2 nM.

For `C=CC[N+]1([C@H]2C[C@H]3[C@@H]4CC[C@H]5C[C@H](O)[C@@H](N6CCOCC6)C[C@]5(C)[C@H]4CC[C@]3(C)[C@H]2OC(C)=O)CCCC1` [rocuronium], the IC50 turned out to be 17 ± 2 nM.

`CC(=O)O[C@H]1C[C@@H]2CC[C@@H]3[C@H](CC[C@@]4(C)[C@H]3C[C@H]([N+]3(C)CCCCC3)[C@@H]4OC(C)=O)[C@@]2(C)C[C@@H]1N1CCCCC1` [vecuronium] came in with an IC50 of 15 ± 2 nM.

Another experiment addresses T1, adult human muscle nicotinic acetylcholine receptor (nAChR, α2βεδ). As to the kind of experiment: cell-based.
Conditions: not given
Take `COc1cc2c3cc1Oc1cc(ccc1O)C[C@@H]1c4c(cc(OC)c(O)c4Oc4ccc(cc4)C[C@@H]3N(C)CC2)CC[N+]1(C)C` [(+)-tubocurarine]: half-maximal inhibition (IC50) was put at 24 ± 2 nM.

For `COc1ccc(C[C@@H]2c3cc(OC)c(OC)cc3CC[N@+]2(C)CCC(=O)OCCCCCOC(=O)CC[N@@+]2(C)CCc3cc(OC)c(OC)cc3[C@H]2Cc2ccc(OC)c(OC)c2)cc1OC` [cisatracurium], inhibition was half-maximal at 10 ± 1 nM (IC50).

Turning to `CC(=O)O[C@H]1C[C@@H]2CC[C@@H]3[C@H](CC[C@@]4(C)[C@H]3C[C@H]([N+]3(C)CCCCC3)[C@@H]4OC(C)=O)[C@@]2(C)C[C@@H]1[N+]1(C)CCCCC1` [pancuronium], the IC50 came out at 6.3 ± 0.8 nM.

The values above are taken from article PMC2497451 (Anesthesia and analgesia, 2008).
